Reference: US20250013155A1, “MICROFLUIDIC POROUS MEMBRANE ELECTRICAL CELL-SUBSTRATE IMPEDANCE SENSING” (THE GOVERNING COUNCIL OF THE UNIVERSITY OF TORONTO, priority 2023, published 2025)

What was measured:
[1] = tested on: confluent monolayer of HUVECs; assay: PM-ECIS resistance (4 kHz) response to EGTA and thrombin barrier disruption, 250/500/750 μm electrodes; type: cell-based, human; settings: all electrode sizes
Excerpt: The PM-ECIS devices were connected to a 24-channel multiplexer, which in turn connected to a phase-sensitive lock-in amplifier (LIA) and computer (FIG. 9D), The overall circuit for the ECIS system follows the set up described by Giaever and Keese. The LIA acts to both generate an alternating current signal, and receive signal measured across the cell layer. An alternating current signal of 1 V rms was generated at a specified frequency, connected to a 1 MΩ resistor to provide a 1 μA current. Cell-free devices were filled with culture medium and measurements taken over at least 12 hours to establish baseline impedance. The voltage drop across the device containing cells grown on electrodes was detected and measured by the LIA, which allows for small AC signals to be resolved in high noise systems. A cell-free baseline was established beforehand using cell-free devices filled with culture medium and impedance measurements taken over the course of at least 12 hours prior to cell seeding. LIA outputs including voltage drop and phase angle were used to calculate and plot impedance and resistance values.
Cells were incubated in 5 mM EGTA (Sigma-Aldrich, E3889) diluted in Endothelial Growth Medium at 37° C. and 5% CO2 for 2 hours, with ECIS measurements taken every 15 min. After 2 hours, EGTA was removed and replaced with fresh growth medium. For transient disruption of the endothelial barrier, cells were stimulated with 1 U/mL of thrombin from bovine plasma (Sigma-Aldrich, T6634) diluted in Endothelial Growth Medium at 37° C. and 5% CO2 for 2 hours, with measurements taken every 5 min.
To assess the effect of electrode size in PM-ECIS response to barrier disruption, a confluent monolayer of HUVECs was subjected to 2-hour treatment with EGTA. EGTA disrupts cell barriers by chelating Ca2+ ions to destabilize tight junctions. […]

HUVEC monolayers = assay: PM-ECIS resistance of HUVEC monolayers on 6-well inserts after thrombin barrier disruption; type: cell-based, human; settings: 1 U/mL thrombin in fresh media, HUVECs, 6-well PM-ECIS
Protocol: A lock-in amplifier (LIA) (SR850, Stanford Research Systems) was used to simultaneously generate AC current and read impedance data from the devices. An Arduino-operated multiplexer was used to switch between devices. Using a 1 V rms input voltage, in series with a 1 MΩ resistor, electrodes (typ. 500 μm dia.) were stimulated at frequencies of 400, 4000 and 40000 Hz, and any voltage drops (at the locked frequencies) across the electrodes were sampled with the LIA every 15 or 60 mins. Prior to use, the devices without cells were left in media for at least 12 hours to record a stable cell-free impedance baseline for each electrode at each frequency.
Cell barrier resistance (Rb), capacitance (Cm), and basal barrier beneath the cells (a) were modeled and calculated using ECIS Core software (Applied Biophysics, v1.2.215.0 PC) using the raw impedance values taken at 400, 4000, and 40000 Hz.

Row | Compound | change in resistance after thrombin treatment ([1]; 1 U/mL thrombin, 4 kHz) | time for resistances to return to or close to pre-treatment values ([1]; 1 U/mL thrombin) | change in 4 kHz PM-ECIS resistance after addition of thrombin (HUVEC monolayers) | time to drop in resistance after treatment ([1]; 5 mM EGTA, 4 kHz)
1 | thrombin: thrombin from bovine plasma (Sigma), used to disrupt cell-cell junctions | immediate drop in resistance | ≤ 120 min | acute resistance drop | –
2 | O=C(O)CN(CCOCCOCCN(CC(=O)O)CC(=O)O)CC(=O)O [EGTA, ethylene glycol-bis(β-aminoethyl ether)-N,N,N′,N′-tetraacetic acid] | – | – | – | ≤ 15 min
